Data: paper PMC7956481, “Carrier-Free Immobilization of α-Galactosidase as Nano-Biocatalysts for Synthesizing Prebiotic α-Galacto-Oligosaccharides” (Molecules, 2021)

System: T1, α-galactosidase
T1 construct: gene aglA; native extracellular enzyme; filtered culture supernatant used as crude enzyme, not purified
Experiment: p-nitrophenol release at […] nm, Michaelis-Menten fit (GraphPad Prism […])
Type: biochemical, Aspergillus niger
Settings: free enzyme (crude culture supernatant); 50 mM acetate buffer pH 5.5; 37 °C; 10 min; 0.3 to 2.2 mM substrate

- Km: 300 ± 20 µM
SMILES: O=[N+]([O-])c1ccc(O[C@H]2O[C@H](CO)[C@H](O)[C@H](O)[C@H]2O)cc1 [p-Nitrophenyl α-D-galactopyranoside]
